Reference: ChEMBL document CHEMBL5385881, “Design, synthesis, and discovery of Eudistomin Y derivatives as lysosome-targeted antiproliferation agents” (Eur J Med Chem, 2023)

What was measured:
SGC-7901 = assay: Cytotoxicity against human SGC-7901 cells assessed as cell inhibition measured after 72 hrs by MTT assay; assay type: functional, cell-based; conditions: SGC-7901, 72 h
MDA-MB-231 = assay: Cytotoxicity against human MDA-MB-231 cells assessed as cell inhibition measured after 72 hrs by MTT assay; assay type: functional, cell-based; conditions: MDA-MB-231, 72 h
LS180 = assay: Cytotoxicity against human LS180 cells assessed as cell inhibition measured after 72 hrs by MTT assay; assay type: functional, cell-based; conditions: LS180, 72 h
HepG2 = assay: Cytotoxicity against human HepG2 cells assessed as cell inhibition measured after 72 hrs by MTT assay; assay type: functional, cell-based; conditions: HepG2, 72 h
[1] = Drug uptake in human MDA-MB-231 cells assessed as accumulation by measuring lysosome-specific fluorescent signals in presence of excess H1 at 1 uM incubated for 1 hrs by confocal laser-scanning microscopic analysis; assay type: ADME, cell-based; conditions: mda-mb-231, 1 h
A549 = assay: Cytotoxicity against human A549 cells assessed as cell inhibition measured after 72 hrs by MTT assay; assay type: functional, cell-based; conditions: A549, 72 h

| Drug uptake [1] | Structure (SMILES) | IC50 (SGC-7901) [µM] | IC50 (MDA-MB-231) [µM] | IC50 (LS180) [µM] | IC50 (HepG2) [µM] | IC50 (A549) [µM] |
| --- | --- | --- | --- | --- | --- | --- |
| Not Active | O=C(c1ccccc1)c1nccc2c3ccccc3n(Cc3cccc(F)c3)c12 | 28.1 | 33.5 | 20 | 28.4 | 31.6 |
|  | O=C(c1ccc(OCc2ccccc2)cc1)c1nccc2c1[nH]c1ccccc12 | 55.1 | 11.2 | 20.7 | 203 | 15.6 |
